SMILES strings stand for the structures.

Assay [1] concerns Hepatitis C virus. Nature of the assay: Antiviral activity against Hepatitis C virus genotype 1b Con1 infected in human HuH7 cells assessed as GAPDH RNA or 18S rRNA level after 3 days selected with 40 nM HCV-796 and 800 nM boceprevir by qRT-PCR analysis relative to control. It is filed as functional, organism-based, Hepacivirus hominis, Huh-7.
Assay [2] deals with Hepatitis C virus. Nature of the assay: Antiviral activity against Hepatitis C virus genotype 1b Con1 infected in human HuH7 cells assessed as GAPDH RNA or 18S rRNA level after 3 days by qRT-PCR analysis. The class given is functional, organism-based, Hepacivirus hominis. Conditions: Con1, Huh-7, 72 h. On the technique in general: In qPCR the cycle at which signal appears reflects the starting amount.

The test system of assay [3] is Hepatitis C virus. Nature of the assay: Antiviral activity against Hepatitis C virus genotype 1b Con1 infected in human HuH7 cells assessed as GAPDH RNA or 18S rRNA level after 3 days selected with 40 nM HCV-796 and 800 nM boceprevir by qRT-PCR analysis. It is filed as functional, organism-based, Hepacivirus hominis. Particulars: Con1, Huh-7, 72 h.
For assay [4], the system named is Hepatitis C virus. Kind of assay: Antiviral activity against Hepatitis C virus genotype 1b Con1 harboring C316Y and C445F mutations mutant infected in human HuH7.5 cells after 72 hrs by gaussia luciferase reporter assay relative to control. The class given is functional, Hepacivirus hominis, Huh-7.
Assay [5] has as its system Hepatitis C virus. Nature of the assay: Antiviral activity against Hepatitis C virus genotype 1b Con1 harboring NS5B I424V mutant infected in human HuH7.5 cells after 72 hrs by gaussia luciferase reporter assay. It is filed as functional, organism-based, Hepacivirus hominis. Conditions: Con1, Huh-7, 72 h. For orientation: A reporter such as luciferase makes a cellular process visible.

The subject of assay [6] is Hepatitis C virus. Kind of assay: Antiviral activity against Hepatitis C virus genotype 1b Con1 harboring NS3 E176G mutant infected in human HuH7.5 cells after 72 hrs by gaussia luciferase reporter assay. It is filed as functional, organism-based, Hepacivirus hominis. Conditions: Con1, Huh-7, 72 h.
In assay [7] the test system is Hepatitis C virus. Kind of assay: Antiviral activity against Hepatitis C virus genotype 1b Con1 harboring NS3 V158M mutant infected in human HuH7.5 cells after 72 hrs by gaussia luciferase reporter assay relative to control. It is filed as functional, Hepacivirus hominis, Huh-7.
In assay [8] the test system is Hepatitis C virus. Kind of assay: Antiviral activity against Hepatitis C virus genotype 1b Con1 harboring NS3 V170A mutant infected in human HuH7.5 cells after 72 hrs by gaussia luciferase reporter assay relative to control. The class given is functional, Hepacivirus hominis, Huh-7.
Assay [9] deals with Hepatitis C virus. Nature of the assay: Antiviral activity against Hepatitis C virus genotype 1b Con1 harboring C316Y and C445F mutations mutant infected in human HuH7.5 cells after 72 hrs by gaussia luciferase reporter assay. The class given is functional, organism-based, Hepacivirus hominis. Conditions: Con1, Huh-7, 72 h.
For assay [10], the system named is Hepatitis C virus. Nature of the assay: Antiviral activity against Hepatitis C virus genotype 1b Con1 harboring NS3 K583T mutant infected in human HuH7.5 cells after 72 hrs by gaussia luciferase reporter assay relative to control. The class given is functional, Hepacivirus hominis, Huh-7.
For assay [11], the system named is Hepatitis C virus. Nature of the assay: Antiviral activity against Hepatitis C virus genotype 1b Con1 harboring NS3 G282S mutant infected in human HuH7.5 cells after 72 hrs by gaussia luciferase reporter assay. The class given is functional, organism-based, Hepacivirus hominis. Particulars: Con1, Huh-7, 72 h.
Assay [12] concerns Hepatitis C virus. Nature of the assay: Antiviral activity against Hepatitis C virus genotype 1b Con1 harboring V170A and C316Y mutations mutant infected in human HuH7.5 cells after 72 hrs by gaussia luciferase reporter assay relative to control. It is filed as functional, Hepacivirus hominis, Huh-7.
Assay [13] concerns Hepatitis C virus. Nature of the assay: Antiviral activity against Hepatitis C virus genotype 1b Con1 harboring NS3 K583T mutant infected in human HuH7.5 cells after 72 hrs by gaussia luciferase reporter assay. The class given is functional, organism-based, Hepacivirus hominis. Particulars: Con1, Huh-7, 72 h.
Assay [14] relates to Hepatitis C virus. Kind of assay: Antiviral activity against Hepatitis C virus genotype 1b Con1 harboring NS3 G282S mutant infected in human HuH7.5 cells after 72 hrs by gaussia luciferase reporter assay relative to control. The class given is functional, Hepacivirus hominis, Huh-7.
In assay [15] the test system is Hepatitis C virus. Kind of assay: Antiviral activity against Hepatitis C virus genotype 1b Con1 harboring NS3 V158M mutant infected in human HuH7.5 cells after 72 hrs by gaussia luciferase reporter assay. The class given is functional, organism-based, Hepacivirus hominis. Particulars: Con1, Huh-7, 72 h.
Assay [16] deals with Hepatitis C virus. Kind of assay: Antiviral activity against Hepatitis C virus genotype 1b Con1 harboring NS5B I424V mutant infected in human HuH7.5 cells after 72 hrs by gaussia luciferase reporter assay relative to control. The class given is functional, Hepacivirus hominis, Huh-7.
In assay [17] the test system is Hepatitis C virus. Nature of the assay: Antiviral activity against Hepatitis C virus genotype 1b Con1 harboring NS5B C445F mutant infected in human HuH7.5 cells after 72 hrs by gaussia luciferase reporter assay. The class given is functional, organism-based, Hepacivirus hominis. Conditions: Con1, Huh-7, 72 h.
Assay [18] deals with Hepatitis C virus. Kind of assay: Antiviral activity against Hepatitis C virus genotype 1b Con1 infected in human HuH7 cells assessed as GAPDH RNA or 18S rRNA level after 3 days selected with […] and 400 nM boceprevir by qRT-PCR analysis. The class given is functional, organism-based, Hepacivirus hominis. Particulars: Con1, Huh-7, 72 h.
Assay [19] has as its system Hepatitis C virus. Nature of the assay: Antiviral activity against Hepatitis C virus genotype 1b Con1 harboring NS5B C316Y mutant infected in human HuH7.5 cells after 72 hrs by gaussia luciferase reporter assay. It is filed as functional, organism-based, Hepacivirus hominis. Particulars: Con1, Huh-7, 72 h.
Assay [20] relates to Hepatitis C virus. Nature of the assay: Antiviral activity against Hepatitis C virus genotype 1b Con1 harboring NS3 V170A mutant infected in human HuH7.5 cells after 72 hrs by gaussia luciferase reporter assay. It is filed as functional, organism-based, Hepacivirus hominis. Conditions: Con1, Huh-7, 72 h.
For assay [21], the system named is Hepatitis C virus. Kind of assay: Antiviral activity against Hepatitis C virus genotype 1b Con1 infected in human HuH7.5 cells after 72 hrs by gaussia luciferase reporter assay. It is filed as functional, organism-based, Hepacivirus hominis. Particulars: Con1, Huh-7, 72 h.
The test system of assay [22] is Hepatitis C virus. Kind of assay: Antiviral activity against Hepatitis C virus genotype 1b Con1 harboring V170A and C316Y mutations mutant infected in human HuH7.5 cells after 72 hrs by gaussia luciferase reporter assay. The class given is functional, organism-based, Hepacivirus hominis. Particulars: Con1, Huh-7, 72 h.
Assay [23] deals with Hepatitis C virus. Nature of the assay: Antiviral activity against Hepatitis C virus genotype 1b Con1 harboring NS5B C316Y mutant infected in human HuH7.5 cells after 72 hrs by gaussia luciferase reporter assay relative to control. It is filed as functional, Hepacivirus hominis, Huh-7.
Assay [24] relates to Hepatitis C virus. Kind of assay: Antiviral activity against Hepatitis C virus genotype 1b Con1 harboring NS5B C445F mutant infected in human HuH7.5 cells after 72 hrs by gaussia luciferase reporter assay relative to control. The class given is functional, Hepacivirus hominis, Huh-7.
In assay [25] the test system is Hepatitis C virus. Nature of the assay: Antiviral activity against Hepatitis C virus genotype 1b Con1 infected in human HuH7 cells assessed as GAPDH RNA or 18S rRNA level after 3 days selected with […] and 400 nM boceprevir by qRT-PCR analysis relative to control. The class given is functional, Hepacivirus hominis, Huh-7.
Assay [26] has as its system Hepatitis C virus. Kind of assay: Antiviral activity against Hepatitis C virus genotype 1b Con1 harboring NS3 E176G mutant infected in human HuH7.5 cells after 72 hrs by gaussia luciferase reporter assay relative to control. The class given is functional, Hepacivirus hominis, Huh-7.

`COC1=C2C[C@@H](C)C[C@H](OC)[C@H](O)[C@@H](C)/C=C(\C)[C@H](OC(N)=O)[C@@H](OC)/C=C\C=C(/C)C(=O)NC(=CC1=O)C2=O` [GELDANAMYCIN]: the “Ratio IC50” value in assay [1] is given as 5. For the same compound, the EC50 – broadly, the concentration that produces a half-maximal response – came out at 0.25 nM in assay [2] and 1.2 nM in assay [3].

Consider `CO[C@H]1/C=C\C=C(/C)C(=O)NC2=CC(=O)C(NCCN(C)C)=C(C[C@@H](C)C[C@H](OC)[C@H](O)[C@@H](C)/C=C(\C)[C@@H]1OC(N)=O)C2=O` [ALVESPIMYCIN], for which the “Ratio IC50” value in assay [1] was determined as 3. Further, the EC50 in assay [2] amounted to 1.2 nM; in assay [3], 3.1 nM.

For `C[C@@]1(O)[C@H](O)[C@@H](CO)O[C@H]1n1ccc(N)nc1=O`, the “Ratio IC50” value in assay [1] is given as 1. The results for the EC50 in assay [2] and in assay [3] were 1140 nM and 1620 nM, respectively.

As to `CC(=O)c1cc(F)c(Br)cc1NCC(=O)Nc1ccccc1C(=O)O`, the EC50 is over 30 nM in assay [1] (Hepatitis C virus, Con1, Huh-7, 72 h); 499 nM in assay [2]; over 15000 nM in assay [3].

As for `CC(C)(C)NC(=O)N[C@H](C(=O)N1C[C@H]2[C@@H]([C@H]1C(=O)NC(CC1CCC1)C(=O)C(N)=O)C2(C)C)C(C)(C)C` (some centres undefined) [BOCEPREVIR], the “Ratio IC50” value in [4] was 1; in assay [7], 1; in assay [8] it was 5; in assay [1], 10; in [10], 1; in [12] it was 7. The “Ratio IC50” value is reported as 3 in assay [14]; 1 in assay [16]; 1 in assay [23]; 1 in assay [24]; 8 in [25]; 4 in [26]. Besides, the EC50 in assay [5] turned out to be 647 nM; in assay [6] it was 2150 nM; in [9], 0.821 µM; in assay [11], 1940 nM; in assay [13], 738 nM; in assay [15], 377 nM. Besides, the EC50 in [17] amounted to 795 nM; in assay [18] it was 1330 nM; in assay [2], 165 nM; in [19], 781 nM; in assay [20] it was 3170 nM; in [3], 1580 nM. In addition, the EC50 in assay [21] turned out to be 608 nM; in assay [22], 4360 nM.

Turning to `CC(=O)c1cc(F)c(Cl)cc1NCC(=O)Nc1ccccc1C(=O)O`, the “Ratio IC50” value in assay [1] is on record as over 15. In addition, the EC50 was 1310 nM in assay [2] and over 20000 nM in assay [3].

Turning to `CNC(=O)c1c(-c2ccc(F)cc2)oc2cc(N(CCO)S(C)(=O)=O)c(C3CC3)cc12` [NESBUVIR], the “Ratio IC50” value in [4] is 1834; in assay [7], 1; in assay [8] it was 1; in [1], 1403; in assay [10], 1; in [12], 95. Further, the “Ratio IC50” value in assay [14] is listed as 2; in assay [16], 1; in assay [23], 138; in [24] it was 8; in [25] it was 1025; in assay [26], 3. The EC50 in [5] amounted to 13 nM; in assay [6] it was 38 nM; in [9], 25.7 µM; in [11], 22 nM; in assay [13], 15 nM; in assay [15] it was 9 nM. For the same compound, the EC50 in [17] amounted to 114 nM; in assay [18] it was 2460 nM; in assay [2], 2.4 nM; in assay [19] it was 1940 nM; in assay [20], 13 nM; in [3] it was 3370 nM. In addition, the EC50 amounted to 14 nM in [21] and 1340 nM in assay [22].

Regarding `CCC[C@]1(CC(=O)O)OCCc2c1[nH]c1c(C)ccc(C#N)c21`, the “Ratio IC50” value in assay [1] is 2. In addition, the EC50 in [3] is 7840 nM.

Source of the values: ChEMBL document CHEMBL1687718, “Selection and characterization of hepatitis C virus replicons dually resistant to the polymerase and protease inhibitors HCV-796 and boceprevir (SCH 503034)” (Antimicrob Agents Chemother, 2009).
